“Also recorded” adds a separate entry of the source.
Experiments:
Avpr1ab = target: T1, Avpr1ab (Danio rerio, UniProt A0A8M1P6E3); assay: Inositol phosphate accumulation assay, antagonism of 1 μM zVP at Avpr1ab; format: cell-based, zebrafish; settings: stimulated with agonist; antagonist up to 1 μM
T1 sequence (A0A8M1P6E3 1-410): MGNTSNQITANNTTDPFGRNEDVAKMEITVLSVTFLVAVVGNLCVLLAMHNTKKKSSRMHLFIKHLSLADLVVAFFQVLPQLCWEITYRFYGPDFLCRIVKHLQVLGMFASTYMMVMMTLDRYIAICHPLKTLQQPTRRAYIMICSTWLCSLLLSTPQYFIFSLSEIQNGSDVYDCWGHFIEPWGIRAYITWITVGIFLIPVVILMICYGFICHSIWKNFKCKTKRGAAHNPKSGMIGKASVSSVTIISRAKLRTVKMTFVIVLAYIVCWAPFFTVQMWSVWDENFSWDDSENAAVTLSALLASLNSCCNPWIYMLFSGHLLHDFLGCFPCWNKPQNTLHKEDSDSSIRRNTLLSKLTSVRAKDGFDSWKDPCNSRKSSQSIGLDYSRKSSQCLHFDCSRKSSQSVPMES
Method: The receptor constructs were ordered from GeneScript and subcloned into a pcDNA3.1/CT-GFP-TOPO vector. The coding sequences of the GenBank entries NM_001199370.1 (oxtr), NM_001199369.1 (oxtrl), NM_001301114.1 (avpr1aa), and NM_001297676.1 (avpr1ab) were used for synthesis. The stop codons were removed, and an additional […] was added to facilitate hybrid protein expression with GFP in frame from the vector. The GCCACC Kozak sequence was inserted before the start codons. After transformation of the plasmid constructs into TOP10 competent cells (Thermo Fisher Scientific), the Maxiprep (Thermo Fisher Scientific) method was used to amplify the plasmids for transfection.
The Inositol phosphate accumulation assay was performed according to previous descriptions to measure the potency of different ligands for zebrafish different oxytocin related receptors. Each receptor construct was transfected into HEK293 cells using Lipofectamine 2000 (Thermo Fisher Scientific). Myo2-^3H-inositol (PerkinElmer) at 3 μCi/mL was added the day after transfection. […] Samples were mixed with OptiPhase HiSafe (PerkinElmer Waltham, MA, USA) and ^3H radioactivity was measured with a Tri-Carb 2910TR liquid scintillation counter (PerkinElmer Waltham, MA, USA). […]

adult zebrafish = assay: Social preference in adult zebrafish; format: in vivo, zebrafish (Danio rerio)
Method: Adult and larval behavioural testing was performed between 9 AM and 4 PM. All fish were fed prior to and after experiments, and larvae were also given an additional feed at midday. Adult fish were of a 1:1 sex ratio, and focal fish and stimulus fish were size-matched. Adult fish and shoals were filmed using a web camera and Debut Video Capture Software (NCH Software, Greenwood Village, USA), and videos were analysed using EthoVision version 11 (Noldus, Wageningen, the Netherlands).
The experimental setup comprised one large test tank (60 cm × 30 cm), and two smaller side tanks (15 cm × 30 cm) positioned at the short ends of the test tank; see Fig. 4. The test tank (the arena) was divided into five different zones used when tracking the video recordings, see Fig. 4. The zone closest to the stimuli shoal was always designated Zone 1, and the zone furthest away from the shoal was always designated Zone 5. […] All tanks were visually isolated from each other during the acclimation period of 10 minutes.
A stimulus shoal of eight zebrafish, with a 1:1 sex ratio, was placed in one of the side tanks, while the opposite side tank remained empty. Focal fish and shoal fish were selected to be of similar size in order not to evoke adverse reactions, such as anxiety or aggression. The experiments were thoroughly randomized between treatment groups for time of day and shoal used. The stimulus fish had been habituated to the room and aquarium for 24 hours prior to the start of the experiments. Two shoals were used as stimulus shoals throughout the experiment. The side for the stimulus shoal was alternated in order to avoid any potential place preference of the focal fish. The reasons for using two shoals for all focal fish were to decrease the behavioural variation in focal fish that may be caused by inter-shoal variations, to decrease the stress in stimulus fish caused by netting and transferring them between tanks that may be transferred to the focal fish, and to limit the number of fish used according to the 3 R principles. There were no statistical significant effects of day of testing (One-way ANOVA; p > 0.7), time of testing (One-way ANOVA; p > 0.5), or the identity of the stimulus shoal (shoal 1 versus shoal 2; un-paired t-test; p > 0.1) on the total time the focal fish spent in Zone 1 (closest to the shoal) during the 15 minutes test time.
At 24 hours prior to the experiment, zebrafish were weighed, placed into separate holding tanks, and brought to the experimental room in order to acclimatise. The following day fish were intraperitoneally injected with vehicle Ringer’s solution (13 females and 8 males), or the antagonist (11 females and 10 males). The Ringer’s solution recipe was retrieved from the Zebrafish Information Network (ZFIN, University of Oregon, Eugene, OR, USA).
Intraperitoneal injections were conducted using a 1 mL U-100 BD MicroFine™ Insulin Syringe (Becton Dickinson France S.A.S., France). Post injection, animals were placed into their holding tanks for one hour to recover. […] Following this, focal fish were individually placed in the middle of the test tank and left to freely move around for ten minutes (acclimation period) before visual partitions were removed, which initiated the start of the test period (15 minutes).
All data for the social preference and novel tank diving experiments in adults were extracted as processed means per minute from EthoVision. For the shoaling experiments, raw data was exported from EthoVision, and then post-processed by an in-house script written in Python 3.4, in order to compute IFD, NND, and FND as described elsewhere. For timelines, repeated measures analysis of variance (RM-ANOVA) was used. For pairwise comparisons of total means between groups, Student’s T-tests were used.

`Cc1ccccc1N1CCN(S(=O)(=O)C[C@]23CC[C@H](C[C@@H]2NC(=O)[C@@H](N)CCS(C)(=O)=O)C3(C)C)CC1` [L-368,899] was tested, and the “Antagonism at Avpr1ab, in words” value (Avpr1ab) was “did not block the response and not and without reducing the effect of the peptide agonist”, the “Social preference in adults, in words” value (adult zebrafish; 100 µg per gram fish i.p.) was “decreased social preference; also recorded: inhibits social preference” and the “Social preference in adults, in words” value (adult zebrafish; 100 µg per gram fish i.p., listed as antagonist) was “did not completely abolish social preference”. The “Time in all the other zones vs vehicle” value (adult zebrafish; 15 min test, 100 µg per gram fish i.p.) was “significantly more time”, the “Time in Zone 1 (closest to the shoal) vs vehicle” value (adult zebrafish; 15 min test, 100 µg per gram fish i.p., t(39) = 3.339, p = 0.0016) was “significantly less time” and the “Distance from shoal vs vehicle” value (adult zebrafish; 15 min test, F(1,39) = 10.79, p = 0.0022) was “significantly further away”. For the same compound, the “Social behaviour: Distance to shoal” value (adult zebrafish; adult social preference, 100 µg per gram fish i.p., 1 h before test, mean ± SEM, vehicle 11.0 ± 1.8) was 19.7 ± 1.9 cm, the “Social behaviour: Social zone duration” value (adult zebrafish; adult social preference, 100 µg per gram fish i.p., 1 h before test, mean ± SEM, vehicle 45.9 ± 2.3) was 34.5 ± 2.4 s/min and the “Locomotion: Distance” value (adult zebrafish; adult social preference, 100 µg per gram fish i.p., 1 h before test, mean ± SEM, vehicle 528 ± 19, p = 0.25) was 496 ± 20 cm/min. For the same compound, the “Activity parameters vs vehicle, social preference test” value (adult zebrafish; average distance p = 0.25, average velocity p = 0.32) was “no significant differences”, the “Approach to shoal, acclimation vs test period” value (adult zebrafish; paired T-test, average distance to shoal, antagonist t(19) = 5.983, p = 9e-6) was “responded to the visual stimuli of a conspecific shoal” and the “Social preference, pilot experiment, 5 μg per gram fish” value (adult zebrafish; pilot, 5 μg L-368,899 per gram fish) was “did not affect social preference”. For the same compound, the “Social preference, pilot experiment, 50 μg per gram fish” value (adult zebrafish; pilot, 50 μg L-368,899 per gram fish) was “did not affect social preference”.
